Measured values reported in US7943618B2, “Btk protein kinase inhibitors” (Roche Palo Alto LLC, priority 2007, dated 2011).

Tests used:
[1] = biological target: T1, Btk enzyme (His-tagged, full-length) (Homo sapiens, UniProt Q06187); assay: Bruton's Tyrosine Kinase (Btk) Inhibition Assay (33P filtration capture); type: biochemical; details: Bruton's tyrosine kinase Assay (Example 34), 100 μM ATP
T1 construct: 5-10 nM Btk enzyme (His-tagged, full-length); His
From the text: Bruton's Tyrosine Kinase (Btk) Inhibition Assay
The assay is a capture of radioactive ^33P phosphorylated product through filtration. The interactions of Btk, biotinylated SH2 peptide substrate (Src homology), and ATP lead to phosphorylation of the peptide substrate. Biotinylated product is bound streptavidin sepharose beads. All bound, radiolabeled products are detected by scintillation counter.
Plates assayed are 96-well polypropylene (Greiner) and 96-well 1.2 μm hydrophilic PVDF filter plates (Millipore).
IC50 determinations are calculated from 10 data points per compound utilizing data produced from a standard 96-well plate assay template. One control compound and seven unknown inhibitors were tested on each plate and each plate was run twice. […] The control compound was staurosporine. Background was counted in the absence of peptide substrate. Total activity was determined in the presence of peptide substrate. The following protocol was used to determine Btk inhibition.
1) Sample preparation: The test compounds were diluted at half-log increments in assay buffer (imidazole, glycerol-2-phosphate, EGTA, MnCl2, MgCl2, BSA).
2) Bead preparation • a.) rinse beads by centrifuging at 500 g • b.) reconstitute the beads with PBS and EDTA to produce a 20% bead slurry
3) Pre-incubate reaction mix without substrate (assay buffer, DTT, ATP, ^33P ATP) and mix with substrate (assay buffer, DTT, ATP, ^33P ATP, peptide substrate) 30° C. for 15 min.
4) To start assay, pre-incubate 10 μL Btk in enzyme buffer (imidazole, glycerol-2-phosphate, BSA) and 10 μL of test compounds for 10 min at RT.
5) Add 30 μL reaction mixture without or with substrate to Btk and compounds.
6) Incubate 50 μL total assay mix for 30 min at 30° C.
7) Transfer 40 μL of assay to 150 μL bead slurry in filter plate to stop reaction.
8) Wash filter plate after 30 min, with following steps • a. 3×250 μL NaCl • b. 3×250 μL NaCl containing 1% phosphoric acid • c. 1×250 μL H2O
9) Dry plate for 1 h at 65° C. or overnight at RT
10) Add 50 μL microscint-20 and count ^33P cpm on scintillation counter.
Calculate percent activity from raw data in cpm percent activity=(sample−bkg)/(total activity−bkg)×100
Calculate IC50 from percent activity, using one-site dose response sigmoidal model y=A+((B−A)/(1+((x/C)^D))))

Ramos cells = assay: Inhibition of B-cell Activation - B cell FLIPR assay in Ramos cells; type: cell-based; details: Homo sapiens, 0.5 h, intracellular calcium increase stimulated by 10 μg/mL anti-IgM, compounds incubated 30 min at RT
From the text: Inhibition of B-cell Activation—B cell FLIPR assay in Ramos cells
The B cell FLIPR assay is a cell based functional method of determining the effect of potential inhibitors of the intracellular calcium increase from stimulation by an anti-IgM antibody. Ramos cells (human Burkitt's lymphoma cell line. ATCC-No. CRL-1596) were cultivated in Growth Media (described below). One day prior to assay, Ramos cells were resuspended in fresh growth media (same as above) and set at a concentration of 0.5×10^6/mL in tissue culture flasks. On day of assay, cells are counted and set at a concentration of 1×10^6/mL1 in growth media supplemented with 1 μM FLUO-3AM(TefLabs Cat-No. 0116, prepared in anhydrous DMSO and 10% Pluronic acid) in a tissue culture flask, and incubated at 37° C. (4% CO2) for one h. To remove extracellular dye, cells were collected by centrifugation (5 min, 1000 rpm), resuspended in FLIPR buffer (described below) at 1×10^6 cells/mL and then dispensed into 96-well poly-D-lysine coated black/clear plates (BD Cat-No. 356692) at 1×10^5 cells per well. Test compounds were added at various concentrations ranging from 100 μM to 0.03 μM (7 concentrations, details below), and allowed to incubate with cells for 30 min at RT. Ramos cell Ca^2+ signaling was stimulated by the addition of 10 μg/mL anti-IgM (Southern Biotech, Cat-No. 2020-01) and measured on a FLIPR (Molecular Devices, captures images of 96 well plates using a CCD camera with an argon laser at 480nm excitation).
Growth Medium: RPMI 1640 medium with L-glutamine (Invitrogen, Cat-No. 61870-010), 10% Fetal Bovine Serum (FBS, Summit Biotechnology Cat-No. FP-100-05); 1 mM Sodium Pyruvate (Invitrogen Cat. No. 11360-070).
FLIPR buffer: HBSS (Invitrogen, Cat-No. 141175-079), 2 mM CaCl2 (Sigma Cat-No. C-4901), HEPES (Invitrogen, Cat-No. 15630-080), 2.5mM Probenecid (Sigma, Cat-No. P-8761), 0.1% BSA (Sigma, Cat-No. A-7906), 11 mM Glucose (Sigma, Cat-No. G-7528)
Compound dilution details:
In order to achieve the highest final assay concentration of 100 μM, 24 μL of 10 mM compound stock solution (made in DMSO) is added directly to 576 μL of FLIPR buffer. The test compounds are diluted in FLIPR Buffer (using Biomek 2000 robotic pipettor) resulting in the following dilution scheme: vehicle, 1.00×10^−4 M, 1.00×10^−5, 3.16×10^−6, 1.00×10^−6, 3.16×10^−7, 1.00×10^−7, 3.16×10^−8.
Intracellular increases in calcium were reported using a max-min statistic (subtracting the resting baseline from the peak caused by addition of the stimulatory antibody using a Molecular Devices FLIPR control and statistic exporting software. The IC50 was determined using a non-linear curve fit (GraphPad Prism software). Representative results are in Table III.

T1 sequence (Q06187 whole entry): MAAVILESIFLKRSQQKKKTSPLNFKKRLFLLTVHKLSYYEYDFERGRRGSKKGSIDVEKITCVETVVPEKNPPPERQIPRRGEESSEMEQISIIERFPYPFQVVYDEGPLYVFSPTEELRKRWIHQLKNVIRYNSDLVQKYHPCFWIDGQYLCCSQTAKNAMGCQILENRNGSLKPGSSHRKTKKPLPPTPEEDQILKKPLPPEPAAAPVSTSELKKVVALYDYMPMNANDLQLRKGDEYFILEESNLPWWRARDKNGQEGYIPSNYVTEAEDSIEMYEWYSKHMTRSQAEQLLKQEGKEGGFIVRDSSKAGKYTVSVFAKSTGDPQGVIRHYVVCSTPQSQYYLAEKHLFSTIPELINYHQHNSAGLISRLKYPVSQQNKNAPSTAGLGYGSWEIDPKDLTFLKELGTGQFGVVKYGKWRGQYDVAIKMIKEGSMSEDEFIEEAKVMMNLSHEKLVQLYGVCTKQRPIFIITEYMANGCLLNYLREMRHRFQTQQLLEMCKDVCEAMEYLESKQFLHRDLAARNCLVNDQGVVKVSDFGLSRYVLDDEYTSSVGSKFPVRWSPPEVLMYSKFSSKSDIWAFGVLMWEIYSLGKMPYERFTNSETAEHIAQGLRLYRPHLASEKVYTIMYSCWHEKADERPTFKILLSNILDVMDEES

| IC50 ([1]; Table I pyridazinones) [nM] | melting point [°C] | IC50 (Ramos cells) [nM] | IC50 ([1]; Table II pyridinones) [nM] | Structure (SMILES) |
| --- | --- | --- | --- | --- |
| 110 | 157 to 158 |  |  | Cc1c(NC(=O)c2ccc(C(C)(C)C)cc2)cccc1-c1cc(Nc2ccc(C(=O)N3CCOCC3)cc2)c(=O)n(C)n1 [Compound I-24] |
| 120 | 229 to 230 |  |  | Cn1nc(-c2cccc(NC(=O)c3ccc(C(C)(C)C)cc3)c2)cc(Nc2ccc(C(=O)N3CCOCC3)cn2)c1=O [Compound I-25] |
| 122 | 278 to 279 |  |  | CCNC(=O)Nc1cc(-c2cccc(NC(=O)c3ccc(C(C)(C)C)cc3)c2C)nn(C)c1=O [Compound I-27] |
| 59 | 216 to 217 |  |  | COc1cc(C(C)(C)C)ccc1C(=O)Nc1cccc(-c2cc(Nc3ccc(C(=O)N4CCOCC4)cn3)c(=O)n(C)n2)c1 [Compound I-30] |
| 16400 | 117 to 118 |  |  | Cn1nc(-c2cccc(CC(=O)N3CCCC3)c2)cc(Nc2ccc(C(=O)N3CCOCC3)cn2)c1=O [Compound I-33] |
| 418 | 92 to 93 |  |  | CC(C)OC1CN(C(=O)Cc2cccc(-c3cc(Nc4ccc(C(=O)N5CCOCC5)cn4)c(=O)n(C)n3)c2)C1 [Compound I-35] |
| 2200 | 80 to 81 |  |  | Cn1nc(-c2cccc(CC(=O)OCCOC(C)(C)C)c2)cc(Nc2ccc(C(=O)N3CCOCC3)cn2)c1=O [Compound I-36] |
| 680 | 179 to 180 |  |  | Cn1nc(-c2cccc(CC(=O)N3Cc4ccccc4C3)c2)cc(Nc2ccc(C(=O)N3CCOCC3)cn2)c1=O [Compound I-40] |
| 6250 | 209 to 210 |  |  | CC(C)N1CCN(C(=O)Cc2cccc(-c3cc(Nc4ccc(C(=O)N5CCOCC5)cn4)c(=O)n(C)n3)c2)CC1 [Compound I-41] |
| 2350 | 231 to 232 |  |  | Cn1nc(-c2cccc(CC(=O)N3CCC(C(C)(C)C)CC3)c2)cc(Nc2ccc(C(=O)N3CCOCC3)cn2)c1=O [Compound I-42] |
| 6290 | 138 to 139 |  |  | Cn1nc(-c2cccc(CC(=O)NCCC(C)(C)C)c2)cc(Nc2ccc(C(=O)N3CCOCC3)cn2)c1=O [Compound I-43] |
|  |  | 67 |  | Cc1c(NC(=O)c2ccc(C(C)(C)C)cc2)cccc1-c1cc(Nc2ccc(C(=O)N3CCOCC3)cn2)c(=O)n(C)c1 [II-2, 4-tert-Butyl-N-(2-methyl-3-{1-methyl-5-[5-(morpholine-4-carbonyl)-pyridin-2-ylamino]-6-oxo-1,6-dihydro-pyridin-3-yl}-phenyl)-benzamide] |
|  | 185 to 186 |  | 308 | Cc1c(NC(=O)c2ccc(C(C)(C)C)cc2)cccc1-c1cc(NC(=O)NC(C)C)c(=O)n(C)c1 [II-6] |
|  | 258 to 259 |  | 867 | Cc1c(NC(=O)c2ccc(C(C)(C)C)cc2)cccc1-c1cc(NC(=O)NCC(F)(F)F)c(=O)n(C)c1 [II-7] |
|  | 219 to 220 |  | 7320 | Cc1c(NC(=O)c2ccc(C(C)(C)C)cc2)cccc1-c1cc(NC(=O)Nc2ccccc2)c(=O)n(C)c1 [II-8] |
|  | 169 to 170 |  | 1240 | Cc1c(NC(=O)c2ccc(C(C)(C)C)cc2)cccc1-c1cc(NC(=O)NCc2ccccc2)c(=O)n(C)c1 [II-9] |
|  | 286 to 287 |  | 131 | CNC(=O)Nc1cc(-c2cccc(NC(=O)c3cc4ccccc4s3)c2C)cn(C)c1=O [II-10] |
|  | 254 to 255 |  | 40 | CNC(=O)Nc1cc(-c2cccc(NC(=O)c3cc4c(s3)CCCC4)c2C)cn(C)c1=O [II-11, 4,5,6,7-Tetrahydro-benzo[b]thiophene-2-carboxylic acid{2-methyl-3-[1-methyl-5-(3-methyl-ureido)-6-oxo-1,6-dihydro-pyridin-3-yl]-phenyl}-amide] |
|  | 262 to 263 |  | 1950 | CNC(=O)Nc1cc(-c2cccc(NC(=O)N3Cc4ccc(F)cc4C3)c2C)cn(C)c1=O [II-14] |
|  | 164 to 165 |  | 129 | Cc1c(NC(=O)c2ccc(C(C)(C)C)cc2)cccc1-c1cc(NC(=O)NCCN(C)C)c(=O)n(C)c1 [II-16] |
|  | 264 to 265 |  | 666 | CNC(=O)Nc1cc(-c2cccc(NC(=O)N3Cc4ccccc4C3)c2C)cn(C)c1=O [II-17, 1,3-Dihydro-isoindole-2-carboxylic acid{2-methyl-3-[1-methyl-5-(3-methyl-ureido)-6-oxo-1,6-dihydro-pyridin-3-yl]-phenyl}-amide] |
|  | 220 to 221 |  | 38 | Cc1c(NC(=O)c2ccc(C(C)(C)C)cc2)cccc1-c1cc(NC(=O)NCCO)c(=O)n(C)c1 [II-18] |
|  | 194 to 195 |  | 29 | Cc1c(NC(=O)c2ccc(C(C)(C)C)cc2)cccc1-c1cc(NC(=O)NCCCN(C)C)c(=O)n(C)c1 [II-22] |
|  | 118 to 119 |  | 4370 | CNC(=O)Nc1cc(-c2cccc(CC(=O)N3CC(OC(C)C)C3)c2)cn(C)c1=O [II-30] |
|  | 251 to 252 |  | 1560 | CNC(=O)Nc1cc(-c2cccc(CC(=O)N3Cc4ccccc4C3)c2)cn(C)c1=O [II-45] |
|  | 113 to 114 |  | 54700 | CNC(=O)Nc1cc(-c2cccc(CC(=O)N3CC(CC(C)(C)O)C3)c2)cn(C)c1=O [II-47] |
|  |  | 15 |  | Cn1cc(-c2cccc(NC(=O)c3ccc(C(C)(C)C)cc3)c2CO)cc(Nc2ccc(C(=O)N3CCOCC3)cn2)c1=O [II-58] |
|  | 203 to 204 |  | < 10 | CCN(CC)Cc1ccc(Nc2cc(-c3cccc(NC(=O)c4ccc(C5(F)CC5)cc4)c3CO)cn(C)c2=O)nc1 [II-70, N-{3-[5-(5-Diethylaminomethyl-pyridin-2-ylamino)-1-methyl-6-oxo-1,6-dihydro-pyridin-3-yl]-2-hydroxymethyl-phenyl}-4-(1-fluoro-cyclopropyl)-benzamide] |

| Structure (SMILES) | IC50 ([1]; Table I pyridazinones) [nM] | melting point [°C] | IC50 (Ramos cells) [nM] | IC50 ([1]; Table II pyridinones) [nM] |
| --- | --- | --- | --- | --- |
| CNC(=O)Nc1cc(-c2cccc(CC(=O)N3CC(OC(C)(C)C)C3)c2)cn(C)c1=O [II-29, 1-(5-{3-[2-(3-tert-Butoxy-azetidin-1-yl)-2-oxo-ethyl]-phenyl}-1-methyl-2-oxo-1,2-dihydro-pyridin-3-yl)-3-methyl-urea] |  | 125 to 126 |  | 1400 |
